Reference: patent publication US10730850B2, “Pyridinylmethyl carbamimidoylcarbamate derivatives and their use as AOC3 inhibitors” (Boehringer Ingelheim International GmbH, priority 2016, dated 2020)
pIC50: −log10 of the molar value.

What follows are compounds tested against AOC3 (Homo sapiens (Human), UniProt Q16853) (assay: MAO-Glo AOC3 assay (recombinant CHO cells overexpressing AOC3)). Conditions: Table 1, read-out: AOC3 IC50.
Assay type: biochemical
Text: The MAO-Glo™ Assay (commercial available from PROMEGA, # V1402) provides a sensitive method for the measurement of monoamine oxidase (MAO) activity (Valley, M. P. et al., 2006, Anal. Biochem. 359: 238-246) from a variety of tissues, biofluids or recombinant expressed or purified enzymes. As substrate a derivate of the beetle luciferin ((4S)-4,5-dihydro-2-(6-hydroxybenzothiazolyl)-4-thiazole-carboxylic acid) is used, which is oxidized at a primary amine moiety. After a spontaneous elimination and a catalyzed esterase reaction, the turnover of the luciferine by the luciferase is recorded as a signal of AOC3 activity.
An aliquot of 3 μL of the compound dilution is added to a 384 well plate (Optiplate, PS, flat bottom, white, PERKIN ELMER, #6007290) with a final DMSO concentration of 6.6%. Recombinant CHO cells, overexpressing the human (1500 cells/well), mouse (1000 cells/well) or rat (500 cells/well) AOC3 enzyme are diluted in reaction buffer and added in a volume of 15 μL to the wells. After incubation for 20 minutes at 37° C., 2 μL of MAO substrate (dissolved in DMSO at 16 mM, adjusted to assay concentration in reaction buffer to a final assay concentration of 20 μM) is added and further incubated for 60 minutes at 37° C. The turnover of the substrate is determined by the addition of 20 μL of the detection-mix which was generated by the addition of reconstitution buffer with esterase (PROMEGA, # V1402) to the luciferine detection reagent (PROMEGA, # V1402). After an incubation period of 20 minutes, the luminescent signal is measured with Envision 2104 Multilabel Reader (PERKIN ELMER).
In the following table the activity expressed as IC50 (nM) of compounds according to the invention is presented wherein the IC50 values are determined in the MAO-Glo™ AOC3 assay as described hereinbefore. The term “Example” refers to the example numbers according to the following experimental section.

Sequence of AOC3 (Q16853 whole entry): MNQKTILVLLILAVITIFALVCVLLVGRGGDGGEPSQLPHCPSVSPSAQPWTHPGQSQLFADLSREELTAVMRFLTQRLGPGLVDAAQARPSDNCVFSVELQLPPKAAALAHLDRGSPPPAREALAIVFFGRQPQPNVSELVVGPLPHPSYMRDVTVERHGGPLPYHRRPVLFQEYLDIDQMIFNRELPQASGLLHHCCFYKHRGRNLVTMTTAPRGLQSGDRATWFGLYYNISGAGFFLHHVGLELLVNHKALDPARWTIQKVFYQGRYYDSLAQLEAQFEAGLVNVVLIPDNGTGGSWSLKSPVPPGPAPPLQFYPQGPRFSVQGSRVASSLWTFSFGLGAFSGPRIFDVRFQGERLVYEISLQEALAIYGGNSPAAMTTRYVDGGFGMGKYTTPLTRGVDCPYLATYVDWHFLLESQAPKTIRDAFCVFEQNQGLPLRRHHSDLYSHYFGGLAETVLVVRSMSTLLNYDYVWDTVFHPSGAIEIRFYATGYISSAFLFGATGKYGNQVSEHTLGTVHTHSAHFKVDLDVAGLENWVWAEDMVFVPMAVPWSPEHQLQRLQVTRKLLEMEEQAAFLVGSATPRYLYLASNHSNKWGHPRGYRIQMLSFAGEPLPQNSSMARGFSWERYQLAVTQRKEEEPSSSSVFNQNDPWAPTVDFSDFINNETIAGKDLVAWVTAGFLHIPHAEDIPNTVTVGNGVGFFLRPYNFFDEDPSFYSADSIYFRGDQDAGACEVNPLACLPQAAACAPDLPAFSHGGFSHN

| pIC50 | SMILES |
| --- | --- |
| 7.82 | N=C(N)NC(=O)OCc1ccnc(N2CCC(c3ccccc3)CC2)c1F [Example 1.008] |
| 7.39 | N=C(N)NC(=O)OCc1ccnc(N2CCN(c3ccccc3)CC2)c1F [Example 1.009] |
| 7.21 | N=C(N)NC(=O)OCc1ccnc(N2CCN(c3ccccn3)CC2)c1F [Example 1.012] |
| 7.66 | N=C(N)NC(=O)OCc1ccnc(N2CCN(c3cccnn3)CC2)c1F [Example 1.013] |
| 7.39 | N=C(N)NC(=O)OCc1ccnc(N2CCN(c3ncccn3)CC2)c1F [Example 1.014] |
| 7.77 | N=C(N)NC(=O)OCc1ccnc(N2CCN(c3ncncn3)CC2)c1F [Example 1.018] |
| 7.08 | Cc1cnc(C2CCN(c3nccc(COC(=O)NC(=N)N)c3F)CC2)o1 [Example 1.019] |
| 7.46 | N=C(N)NC(=O)OCc1ccnc(N2CCC(C3CCCCC3)CC2)c1F [Example 1.020] |
| 7.59 | N=C(N)NC(=O)OCc1ccnc(N2CCN(C3CCCC3)C(=O)C2)c1F [Example 1.021] |
| 7.31 | N=C(N)NC(=O)OCc1ccnc(N2CCC(c3nccs3)CC2)c1F [Example 1.022] |
| 7.74 | N=C(N)NC(=O)OCc1ccnc(N2CCN(c3nccs3)CC2)c1F [Example 1.024] |
| 7.04 | N=C(N)NC(=O)OCc1ccnc(N2CCC(N3CCOCC3)CC2)c1F [Example 1.025] |
| 6.95 | N=C(N)NC(=O)OCc1ccnc(N2CCC(N3CCOC3=O)CC2)c1F [Example 1.026] |
| 8.00 | Cc1cccc(C2CCN(c3nccc(COC(=O)NC(=N)N)c3F)CC2)c1 [Example 1.028] |
| 8.05 | Cc1ccc(C2CCN(c3nccc(COC(=O)NC(=N)N)c3F)CC2)cc1 [Example 1.029] |
| 7.96 | Cc1ccc(N2CCN(c3nccc(COC(=O)NC(=N)N)c3F)CC2)cc1 [Example 1.032] |
| 7.24 | Cc1ccccc1N1CCN(c2nccc(COC(=O)NC(=N)N)c2F)CC1 [Example 1.034] |
| 7.85 | Cc1ccc(N2CCN(c3nccc(COC(=O)NC(=N)N)c3F)CC2)nc1 [Example 1.038] |

| pIC50 | SMILES |
| --- | --- |
| 7.89 | N=C(N)NC(=O)OCc1ccnc(N2CCN(c3ccccc3F)CC2)c1F [Example 1.043] |
| 7.62 | N=C(N)NC(=O)OCc1ccnc(N2CCN(c3ncc(F)cn3)CC2)c1F [Example 1.045] |
| 6.89 | N=C(N)NC(=O)OCc1ccnc(N2CCC(N3CCCCC3=O)CC2)c1F [Example 1.046] |
| 7.08 | N=C(N)NC(=O)OCc1ccnc(N2CCC3(CCc4ccccc43)CC2)c1F [Example 1.053] |
| 7.80 | N#Cc1cnc(N2CCN(c3nccc(COC(=O)NC(=N)N)c3F)CC2)nc1 [Example 1.059] |
| 7.11 | N#CC1CCN(C2CCN(c3nccc(COC(=O)NC(=N)N)c3F)CC2)CC1 [Example 1.070] |
| 8.10 | COc1cnc(C2CCN(c3nccc(COC(=O)NC(=N)N)c3F)CC2)nc1 [Example 1.071] |
| 7.85 | N=C(N)NC(=O)OCc1ccnc(N2CCC(c3cccc(Cl)c3)CC2)c1F [Example 1.075] |
| 7.41 | N=C(N)NC(=O)OCc1ccnc(N2CCN(c3ccccc3Cl)CC2)c1F [Example 1.076] |
| 7.96 | N=C(N)NC(=O)OCc1ccnc(N2CCC(c3ncc(Cl)cn3)CC2)c1F [Example 1.079] |
| 7.07 | N=C(N)NC(=O)OCc1ccnc(N2CCC(N3CC[S+]([O-])CC3)CC2)c1F [Example 1.080] |
| 8.70 | N=C(N)NC(=O)OCc1ccnc(N2CCC(c3ccc(C(=O)O)cc3)CC2)c1F [Example 1.082] |
| 7.92 | CCOc1ccc(C2CCN(c3nccc(COC(=O)NC(=N)N)c3F)CC2)cn1 [Example 1.087] |
| 7.32 | N=C(N)NC(=O)OCc1ccnc(N2CCC(N3CCC(C(N)=O)CC3)CC2)c1F [Example 1.088] |
| 8.00 | CN(C)Cc1ccc(C2CCN(c3nccc(COC(=O)NC(=N)N)c3F)CC2)cc1 [Example 1.090] |
| 7.92 | N=C(N)NC(=O)OCc1ccnc(N2CCC(c3ccc(C(F)(F)F)cc3)CC2)c1F [Example 1.096] |
| 7.19 | CC(C)(C)OC(=O)N1CC(C2CCN(c3nccc(COC(=O)NC(=N)N)c3F)CC2)C1 [Example 1.102] |

More lines, now with the values behind:

| SMILES | pIC50 |
| --- | --- |
| N=C(N)NC(=O)OCc1ccnc(N2CC(c3ccccc3)C2)c1F [Example 1.001] | 7.01 |
| N=C(N)NC(=O)OCc1ccnc(N2CC(c3ccccn3)C2)c1F [Example 1.002] | 6.76 |
| N#Cc1ccc(C2CN(c3cccc(COC(=O)NC(=N)N)n3)C2)cc1 [Example 1.003] | 7.80 |
| N=C(N)NC(=O)OCc1ccnc(N2CC=C(c3ncco3)CC2)c1F [Example 1.004] | 7.42 |
| N=C(N)NC(=O)OCc1ccnc(N2CC=C(c3ccccc3)CC2)c1F [Example 1.005] | 7.77 |
| N=C(N)NC(=O)OCc1ccnc(N2CC=C(c3ccccn3)CC2)c1F [Example 1.006] | 7.74 |
| N=C(N)NC(=O)OCc1ccnc(N2CC=C(c3ncccn3)CC2)c1F [Example 1.007] | 7.02 |
| Cc1cnc(C2=CCN(c3nccc(COC(=O)NC(=N)N)c3F)CC2)o1 [Example 1.015] | 7.77 |
| Cc1cnc(C2=CCN(c3nccc(COC(=O)NC(=N)N)c3F)CC2)nc1 [Example 1.030] | 7.64 |
| CC1CN(c2nccc(COC(=O)NC(=N)N)c2F)CCN1c1ccccc1 (stereo not shown) [Example 1.035] | 7.85 |
| N=C(N)NC(=O)OCc1ccnc(N2CC=C(c3ncc(F)cn3)CC2)c1F [Example 1.042] | 7.55 |
| N=C(N)NC(=O)OCc1ccnc(N2CCC3(C=Cc4ccccc43)CC2)c1F [Example 1.049] | 7.66 |
| N=C(N)NC(=O)OCc1ccnc(N2C3CCC2CC(c2ccccc2)C3)c1F (stereo not shown) [Example 1.052] | 7.08 |
| N#Cc1ccc(N2CCN(c3nccc(COC(=O)NC(=N)N)c3F)CC2)cn1 [Example 1.057] | 8.52 |
| Cc1cccc(C)c1N1CCN(c2nccc(COC(=O)NC(=N)N)c2F)CC1 [Example 1.060] | 6.66 |
| CCc1ccc(N2CCN(c3nccc(COC(=O)NC(=N)N)c3F)CC2)cc1 [Example 1.062] | 7.96 |
| Cc1ccc(N2CCN(c3nccc(COC(=O)NC(=N)N)c3F)CC2)cc1C [Example 1.063] | 7.89 |
| N=C(N)NC(=O)OCc1ccnc(N2CC3CC2CN3c2cccc(F)c2)c1F (stereo not shown) [Example 1.066] | 6.56 |
| N=C(N)NC(=O)OCc1ccnc(N2CC=C(c3ccc(Cl)cc3)CC2)c1F [Example 1.069] | 7.82 |
| COc1cnc(N2CCN(c3nccc(COC(=O)NC(=N)N)c3F)CC2)nc1 [Example 1.073] | 8.00 |
| N=C(N)NC(=O)OCc1ccnc(N2CC(c3ccc(OCC4CC4)cc3)C2)c1F [Example 1.081] | 7.66 |
| COC(=O)c1cnc(N2CCN(c3nccc(COC(=O)NC(=N)N)c3F)CC2)nc1 [Example 1.093] | 7.77 |
| COC(=O)c1ccc(N2CCN(c3nccc(COC(=O)NC(=N)N)c3F)CC2)nn1 [Example 1.094] | 7.85 |
| N=C(N)NC(=O)OCc1ccnc(N2CCN(c3ccc(C(F)(F)F)cc3)CC2)c1F [Example 1.097] | 7.96 |
| N=C(N)NC(=O)OCc1ccnc(N2CCN(c3ncc(C(F)(F)F)cn3)CC2)c1F [Example 1.098] | 7.82 |
| N#Cc1ccc(N2CCN(c3nccc(COC(=O)NC(=N)N)c3F)CC2)c(C(F)(F)F)c1 [Example 1.105] | 7.51 |
